Results: patent US20130203715A1, “USE OF TRP CHANNEL AGONISTS TO TREAT INFECTIONS” (Pulmatrix, Inc., priority 2010, published 2013)
Read-outs that look alike come from different tables or passages of the source.

Columns and labels:
parainfluenza (hPIV3) = format: cell-based, human parainfluenza virus
[1] = test system: Influenza A/Panama/2007/99; experiment: Influenza infection of normal human bronchial epithelial (NHBE) cells, viral titer by TCID50; format: cell-based, Influenza A (H3N2); conditions: for Effect of TRPV4 agonist on influenza replication in NHBE cells: agonist 1 μM one hour prior to infection and reapplied 3 h after, compared to PBS control
rhinovirus (RV16) = format: cell-based, human rhinovirus
[2] = test system: Influenza A/Panama/2007/99; format: cell-based; conditions: for Effect of TRP channel antagonist on 8×Ca:Na formulation-mediated reduction of influenza infection: Calu-3 cells pretreated with antagonist (RR 1 μM, SKF96365 10 μM, RN1734 1-100 μM), then 8×Ca:Na formulation
[3] = Calu-3 cells, treatment alone, compared to untreated control
[4] = reduction of influenza infection, TCID50 24 h after infection
[5] = reduction of influenza infection, agonist applied apically 1 h before and again 3 h after infection, titer 24 h after infection
[6] = Calu-3 cells pretreated with ruthenium red 1 μM, then 8×Ca:Na formulation

What does the source list for `CCCCCCCCCC(=O)O[C@@H]1[C@@H](C)[C@@]2(O)[C@@H](C=C(CO)C[C@@]3(O)C(=O)C(C)=C[C@@H]23)[C@@H]2C(C)(C)[C@]12OC(=O)CCCCCCCCC` [4αPDD, 4α-Phorbol 12,13-didecanoate]?
Effect on parainfluenza infection of Calu-3 cells (parainfluenza (hPIV3); Calu-3 cells, hPIV3, compared to untreated control): able to reduce; Effect of TRPV4 agonist on influenza replication in NHBE cells [1]: reduced influenza replication; Effect on rhinovirus infection of Calu-3 cells (rhinovirus (RV16); Calu-3 cells, RV16, compared to untreated control): able to reduce; Active concentrations [2]: -9 to -5 M; Effect on influenza infection (viral titer) of Calu-3 cells [2]: reduces influenza infection; Max reduction in titer (Log10) [2]: 2.9 Log10

With `C=C(C)[C@]12C[C@@H](C)[C@@]34O[C@](Cc5ccccc5)(O[C@@H]1[C@@H]3C=C(COC(=O)Cc1ccc(O)c(OC)c1)C[C@]1(O)C(=O)C(C)=C[C@@H]41)O2` [Resiniferatoxin] as the compound, how does the Active concentrations [2] read?
Its Active concentrations is -6 to -4 M.

And the “Max reduction in titer (Log10)” value [2]?
Its value is 3.3 Log10.

How did the Active concentrations [2] turn out when `O=[N+]([O-])c1cc(Cl)ccc1S(=O)(=O)N1CCN(Cc2ccccc2)CC1` [RN1747] was run?
The Active concentrations was -8 to -4 M.

And the “Max reduction in titer (Log10)” value [2]?
Its value is 2.3 Log10.

What about the “Effect on influenza infection (viral titer) of Calu-3 cells” value (shortened to “Effect on influenza infection”) [2, 3] of the same compound?
Its value is “reduces influenza infection in a dose-dependent manner”.

`COc1ccc(CCCOC(Cn2ccnc2)c2ccc(OC)cc2)cc1` (centres unmarked) [SKF96365] was tested. Which “Effect of TRP channel antagonist on 8×Ca:Na formulation-mediated reduction of influenza infection” value [2] did it give?
The value was “the effect on viral infection was reduced to levels comparable to the untreated control cells”.

`COc1cc(CNC(=O)CCCC/C=C/C(C)C)ccc1O` [Capsacin] was tested. Which Active concentrations [2] did it give?
Its Active concentrations is -8 to -4 M.

And the “Max reduction in titer (Log10)” value [2]?
Its value is 2.2 Log10.

Which “Effect on influenza infection” value [2, 3] does the source give for `CC1CCC(C(C)C)C(O)C1` (centres unmarked) [Menthol] here?
The value was “reduced influenza titer in a dose responsive manner”.

What about the “Max reduction in titer (Log10)” value [2, 4] of the same compound?
The value was 2.5 Log10.

And the Active concentrations [2, 5]?
Its Active concentrations is -7 to -4 M.

Which results are given for `O=C(O)c1ccccc1Nc1cccc(C(F)(F)F)c1` [Flufenamic acid]?
Effect on influenza infection (viral titer) of Calu-3 cells [2, 3]: reduced influenza titer in a dose responsive manner; Max reduction in titer (Log10) [2, 4]: 2.5 Log10; Active concentrations [2, 5]: -6 to -4 M

`CC(C)NCCN(C(C)C)S(=O)(=O)c1ccc(Cl)cc1Cl` [RN1734] was tested. Which “Effect of TRP channel antagonist on 8×Ca:Na formulation-mediated reduction of influenza infection” value [2] did it give?
The value was “inhibited the 8×Ca:Na formulation-mediated reduction of influenza infection in a dose dependent manner”.

How did the Active concentrations [2] turn out when `Cc1ccc(C(C)C)cc1O` [Carvacrol] was run?
Its Active concentrations is −6.5 to −4M^.

And the “Max reduction in titer (Log10)” value [2]?
The value was 3 Log10.

And the “Effect on influenza infection” value [2, 3]?
The value was “reduced influenza titer in a dose responsive manner”.

With `CC(C)C[C@H](NC(=O)c1cc2ccccc2s1)C(=O)N1CCN(C(=O)[C@H](CO)NS(=O)(=O)c2ccc(Cl)cc2Cl)CC1` [GSK1016790A] as the compound, how does the “Effect of TRPV4 agonist on influenza replication in NHBE cells” value [1] read?
Its value is “reduced influenza replication”.

And the Active concentrations [2]?
The Active concentrations was -11 to -6 M.

And the “Max reduction in titer (Log10)” value [2]?
Its value is 5.0 Log10.

And the “Effect on influenza infection” value [2, 3]?
The value was “reduces influenza infection in a dose-dependent manner”.

What about the “Effect on influenza infection” value ([2]; Calu-3 cells, treatment alone, compared to untreated control, listed as GSK10168790) of the same compound?
Its value is “the highest level of anti-viral efficacy in a dose-dependent manner”.

What does the source list for `O=C1NC(c2cccc([N+](=O)[O-])c2)=CCN1c1ccccc1O` [Icilin]?
Effect on influenza infection (viral titer) of Calu-3 cells [2, 3]: small, but measurable reduction of influenza titer; Max reduction in titer (Log10) [2, 4]: 1 Log10; Active concentrations [2, 5]: -6 to -4 M

Which results are given for `N.N.N.N.N.N.N.N.N.N.N.N.N.N.[Cl-].[Cl-].[Cl-].[Cl-].[Cl-].[Cl-].[O-2].[O-2].[Ru+3].[Ru+3].[Ru+4]` [Ruthenium Red]?
Effect of antagonist on 8×Ca:Na formulation efficacy against parainfluenza (parainfluenza (hPIV3); [6]): the efficacy of the 8× treatment was reduced; Effect of antagonist on 8×Ca:Na formulation anti-viral action in NHBE cells ([1]; ruthenium red 1 μM before 8×Ca:Na formulation): blocked the anti-viral action of the Ca:Na formulation; Effect of antagonist on 8×Ca:Na formulation efficacy against rhinovirus (rhinovirus (RV16); [6]): the efficacy of the 8× treatment was reduced; Effect of antagonist on Formulation I reduction of influenza viral titer ([2]; Calu-3 cells pre-treated with ruthenium red 1 μM, then dry powder Formulation I): attenuated; Effect of antagonist on Formulation II reduction of influenza infection ([2]; Calu-3 cells pre-treated with ruthenium red 1 μM, then dry powder Formulation II): attenuated; Effect of TRP channel antagonist on 8×Ca:Na formulation-mediated reduction of influenza infection [2]: the effect on viral infection was reduced to levels comparable to the untreated control cells
